Test [1] in a line: Inhibition of VGLUT.
A short description of test [2]: Inhibition of VGLUT in rat synaptic vesicles assessed as [3H]glutamate uptake pretreated for 30 mins measured after 10 mins by scintillation spectrophotometer analysis.
Test [3] is described as follows: Inhibition of VGLUT in rat synaptic vesicles assessed as [3H]glutamate uptake at 2.5 uM pretreated for 30 mins measured after 10 mins by scintillation spectrophotometer analysis.
Test [4] is described as follows: Inhibition of VMAT in rat synaptic vesicles assessed as [3H]HT uptake pretreated for 30 mins measured after 10 mins by scintillation spectrophotometer analysis.
The target of test [5] is T1, Vesicular acetylcholine transporter (Rattus norvegicus, UniProt Q62666).
T1 sequence (Q62666 whole entry): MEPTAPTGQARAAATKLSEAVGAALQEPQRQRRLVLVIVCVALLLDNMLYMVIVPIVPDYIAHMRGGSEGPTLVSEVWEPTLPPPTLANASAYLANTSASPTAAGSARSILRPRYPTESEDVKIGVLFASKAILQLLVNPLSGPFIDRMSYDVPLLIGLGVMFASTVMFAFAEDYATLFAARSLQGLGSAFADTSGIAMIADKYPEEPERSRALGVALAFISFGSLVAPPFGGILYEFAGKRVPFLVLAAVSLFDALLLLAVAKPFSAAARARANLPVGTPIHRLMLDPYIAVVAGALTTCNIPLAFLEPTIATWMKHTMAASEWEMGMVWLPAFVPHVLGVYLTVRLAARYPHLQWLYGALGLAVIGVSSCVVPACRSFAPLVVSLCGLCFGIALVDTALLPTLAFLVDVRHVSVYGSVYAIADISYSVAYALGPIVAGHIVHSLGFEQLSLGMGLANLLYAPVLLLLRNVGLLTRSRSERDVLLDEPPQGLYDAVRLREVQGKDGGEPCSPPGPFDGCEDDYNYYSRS
In words: Inhibition of VACHT in rat synaptic vesicles assessed as […] 30 mins measured after 10 mins by scintillation spectrophotometer analysis.

Usually IC50 stands for the concentration that gives 50% inhibition. As a reminder, the Ki is the equilibrium dissociation constant of an inhibitor or competing ligand from its target.

Consider `N[C@]1(C(=O)O)CC[C@@H](C(=O)O)C1`, for which 230000 nM corresponded to half-maximal inhibition in test [1] (IC50).
Consider `O=C(O)c1c(Br)c(Br)c(Br)c(Br)c1-c1c2cc(I)c(=O)c(I)c-2oc2c(I)c(O)c(I)cc12`, for which the IC50 in test [2] was 74 nM.
On to `O=C(O)c1c(Cl)c(Cl)c(Cl)c(Cl)c1-c1c2ccc(=O)cc-2oc2cc(O)c3ccccc3c12`, for which, in test [3], the IC50 result is on record as “Not Active”.
For `O=C(O)c1c(Cl)c(Cl)c(Cl)c(Cl)c1-c1c2cc(Br)c(=O)c(Br)c-2oc2c(Br)c(O)c(Br)cc12`, the IC50 in test [2] is 51 nM.
Still for that read-out and setting: next, `COC(=O)c1c(Cl)c(Cl)c(Cl)c(Cl)c1-c1c2cc(I)c(=O)c(I)c-2oc2c(I)c(O)c(I)cc12`: 44 nM; `O=C(O)c1ccccc1-c1c2cc(Cl)c(=O)cc-2oc2cc(O)c(Cl)cc12`: above 64000 nM; `O=C(O)c1c(Cl)c(Cl)c(Cl)c(Cl)c1-c1c2ccc(=O)cc-2oc2cc(O)ccc12`: 15000 nM.
Still for that read-out and setting: the value for `Cc1c2oc3c(C)c(O)c(I)cc3c(-c3ccccc3C(=O)O)c-2cc(I)c1=O` was 531 nM; that for `O=C(O)c1cccc([N+](=O)[O-])c1-c1c2cc(I)c(=O)c(I)c-2oc2c(I)c(O)c(I)cc12` was 6690 nM; that for `O=C(O)CCc1c2cc(I)c(=O)c(I)c-2oc2c(I)c(O)c(I)cc12` was 2200 nM.
Regarding `O=C(O)c1cc(C(=O)O)c2cc(-c3ccc(-c4ccccc4)cc3)cc(O)c2n1` [QUINOLEIN DICARBOXYLIC ACID], in test [1], the IC50 is 40000 nM.
Turning to `O=C(O)c1c(O)cccc1-c1c2cc(I)c(=O)c(I)c-2oc2c(I)c(O)c(I)cc12`, in test [2], the IC50 was 7800 nM.
On the same count and under the same terms, next, `N#CSc1ccc(C(=O)O)c(-c2c3cc(I)c(=O)c(I)c-3oc3c(I)c(O)c(I)cc23)c1`: 689 nM.
Take `COC(=O)c1ccccc1-c1c2cc(Br)c(=O)c(Br)c-2oc2c(Br)c(O)c(Br)cc12`: in test [2], the IC50 was found to be 117 nM.
The same measure, in the same setting: next, `O=C(O)c1cc(Cl)c(Cl)cc1-c1c2cc(I)c(=O)c(I)c-2oc2c(I)c(O)c(I)cc12`: 41 nM.
Regarding `O=C(O)c1c(Cl)ccc(Cl)c1-c1c2cc(I)c(=O)c(I)c-2oc2c(I)c(O)c(I)cc12`, the IC50 in test [2] came out at 27 nM.
`O=C(O)c1c(Cl)c(Cl)c(Cl)c(Cl)c1-c1c2c3ccccc3c(=O)cc-2oc2cc(O)c3ccccc3c12`: the IC50 entry in test [3] is recorded as “Not Active”.
With `O=C(O)c1c(F)c(F)c(F)c(F)c1-c1c2cc(I)c(=O)c(I)c-2oc2c(I)c(O)c(I)cc12`, in test [2], the IC50 is 102 nM.
On the same count and under the same terms, next, `O=c1c(I)cc2c(-c3cc(Cl)c(Cl)c(Cl)c3Cl)c3cc(I)c(O)c(I)c3oc-2c1I` [DESCARBOXY RB]: 68 nM.
For `O=C(O)c1c(Cl)c(Cl)c(Cl)c(Cl)c1-c1c2cc(I)c(=O)c(I)c-2oc2c(I)c(O)c(I)cc12` [ROSE BENGAL SODIUM], the figures for the half-maximal inhibitory concentration (IC50) in test [2], in test [4] and in test [5] were 19 nM, 64 nM and 9700 nM, respectively. This compound also returned a Ki in test [1] of 19 nM.
Consider `O=C(O)c1ccccc1-c1c2cc(I)c(=O)c(I)c-2oc2c(I)c(O)c(I)cc12`, for which, in test [2], the IC50 amounted to 36 nM.
On the same count and under the same terms, next, `O=C(O)c1ccccc1-c1c2cc([N+](=O)[O-])c(=O)c(Br)c-2oc2c(Br)c(O)c([N+](=O)[O-])cc12` [EOSIN B]: 2440 nM; `O=c1ccc2c(-c3ccccc3S(=O)(=O)O)c3ccc(O)c(O)c3oc-2c1O` [PYROGALLOL RED]: above 32000 nM.
Turning to `O=C1OC2(c3ccc(O)cc3Oc3cc(O)ccc32)c2ccccc21` [FLUORESCEIN], in test [3], the IC50 result is listed as “Not Active”.
As to `COC(=O)c1ccccc1-c1c2cc([N+](=O)[O-])c(=O)c(Br)c-2oc2c(Br)c(O)c([N+](=O)[O-])cc12`, the IC50 in test [2] stood at 238 nM.
With `CCOC(=O)c1c(Cl)c(Cl)c(Cl)c(Cl)c1-c1c2cc(I)c(=O)c(I)c-2oc2c(I)c(O)c(I)cc12`, the IC50 in test [2] worked out at 192 nM.
Same read-out and setting: next, `CCOC(=O)c1ccccc1-c1c2cc(Br)c(=O)c(Br)c-2oc2c(Br)c(O)c(Br)cc12`: 65 nM.
Same read-out and setting: next, `O=C(OCc1ccccc1)c1c(Cl)c(Cl)c(Cl)c(Cl)c1-c1c2cc(I)c(=O)c(I)c-2oc2c(I)c(O)c(I)cc12`: 65 nM; `COc1c(I)cc2c(c1I)Oc1c(cc(I)c(OC)c1I)C21OC(=O)c2c(Cl)c(Cl)c(Cl)c(Cl)c21`: 8820 nM; `O=C(O)c1ccccc1-c1c2cc(Br)c(=O)c(Br)c-2oc2c(Br)c(O)c(Br)cc12`: 406 nM.
Same read-out and setting: next, `O=C(O)c1ccccc1-c1c2ccc(=O)c(I)c-2oc2c(I)c(O)ccc12`: 1060 nM.
